Test results published in PubChem BioAssay (NCI).
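Tested at 5 concentrations; 48 h exposure; 96-well plates; endpoints linearly interpolated, else capped at highest concentration. GI50: concentration for 50% inhibition of growth. Definition used: TGI = concentration required for complete inhibition of growth.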

Assays:
Test in all cases: NCI tumour cell line growth inhibition, 48 h
A498 renal = test system: A498 renal
UO-31 renal = test system: UO-31 renal
HT29 colon = test system: HT29 colon
RPMI-8226 leukemia = test system: RPMI-8226 leukemia
MOLT-4 leukemia = test system: MOLT-4 leukemia
HCT-116 colon = test system: HCT-116 colon
SK-MEL-5 melanoma = test system: SK-MEL-5 melanoma
IGROV1 ovarian = test system: IGROV1 ovarian
HCT-15 colon = test system: HCT-15 colon
DU-145 prostate = test system: DU-145 prostate

SMILES	TGI (A498 renal) [µM]	TGI (UO-31 renal) [µM]	TGI (HT29 colon) [µM]	TGI (RPMI-8226 leukemia) [µM]	TGI (MOLT-4 leukemia) [µM]	TGI (HCT-116 colon) [µM]	TGI (SK-MEL-5 melanoma) [µM]	TGI (IGROV1 ovarian) [µM]	TGI (HCT-15 colon) [µM]	GI50 (HCT-15 colon) [µM]	GI50 (IGROV1 ovarian) [µM]	GI50 (UO-31 renal) [µM]	GI50 (HT29 colon) [µM]	GI50 (MOLT-4 leukemia) [µM]	GI50 (HCT-116 colon) [µM]	GI50 (SK-MEL-5 melanoma) [µM]	GI50 (A498 renal) [µM]	GI50 (RPMI-8226 leukemia) [µM]	GI50 (DU-145 prostate) [µM]	TGI (DU-145 prostate) [µM]
CCOC(=O)[C@@]12C(C)=CC(=O)O[C@]1(C)C1C(=O)NC(=O)C12 (some centres not stated)	> 100	> 100	> 100	> 100	> 100	> 100	> 100	> 100	–	–	–	–	–	–	–	–	–	–	–	–
Cc1cc(Cl)cc2c1NC(=O)C2(O)CC(=O)c1ccc(Br)cc1 (configuration not stated)	> 70.8	> 100	> 100	> 100	46.5	> 100	57.8	> 100	> 100	–	–	–	–	–	–	–	–	–	–	–
O=C(c1ccccc1)c1nnn(Cc2ccccc2Cn2nnc(C(=O)c3ccccc3)c2C(=O)c2ccccc2)c1C(=O)c1ccccc1	> 100	> 100	> 100	> 100	> 100	> 100	> 100	> 100	> 100	–	–	–	–	–	–	–	–	–	–	–
Cc1ccc(N2C(=O)/C(=C/c3ccc(N(CCC#N)CCC#N)cc3)N=C2COc2ccc(Cl)cc2Cl)cc1	–	> 100	> 100	> 100	> 100	> 100	> 100	> 100	> 100	–	–	–	–	–	–	–	–	–	–	–
Brc1cc(C2OCCCO2)ccc1OCc1ccccc1	> 100	> 100	33.2	> 100	> 100	–	71.4	> 100	> 100	–	–	–	–	–	–	–	–	–	–	–
CN1CCC(c2c(O)cc(O)c3c(=O)cc(-c4ccccc4Cl)oc23)C(O)C1 (configuration not stated)	–	> 100	> 56.3	0.0285	0.198	–	0.107	> 100	> 100	0.0506	0.0827	–	–	–	–	–	–	–	–	–
CC1=NN(c2ccccc2)C(=O)C12[C@H](c1ccccc1)C2(C#N)C#N (some centres not stated)	31.6	27.9	17.1	4.08	3.1	12	14.3	28.1	13.9	–	–	–	–	–	–	–	–	–	–	–
CCC1CCCCN1CC(C(C)=O)C(c1ccccc1)c1c(O)c2ccccc2oc1=O (configuration not stated)	> 100	> 100	> 100	> 100	> 100	> 100	> 100	> 100	> 100	–	–	–	–	–	–	–	–	–	–	–
O=[N+]([O-])c1cc(/C=N\NS(=O)(=O)c2ccc(Cl)cc2)c(O)c([N+](=O)[O-])c1	83	> 100	58.9	80.9	86	> 100	66.6	> 100	53.1	–	–	–	–	–	–	–	–	–	–	–
COC(=O)/C(C#N)=C1\CCC(OC)N1C (configuration not stated)	–	> 100	> 100	> 100	> 100	> 100	> 100	> 100	> 100	–	–	–	–	–	–	–	–	–	–	–
CCCCNS(=O)(=O)c1ccc(-c2ccc3c(c2)-c2ccc(S(=O)(=O)NCCCC)cc2S3(=O)=O)cc1	26.6	> 100	> 100	> 100	> 100	54.9	28.6	> 100	> 100	–	–	–	–	–	–	–	–	–	–	–
O=C1OC(=O)C23CSCC12C1C=CC3O1 (configuration not stated)	> 100	> 100	> 100	> 100	> 100	> 100	> 100	> 100	> 100	–	–	–	–	–	–	–	–	–	–	–
O=c1cc[nH]cc1-c1c[nH]ccc1=O	> 100	> 100	> 100	> 100	> 100	> 100	> 100	> 100	> 100	–	–	–	–	–	–	–	–	–	–	–
O=c1c2ccccc2oc2ccccc12 (tested in a mixture with another compound)	82.5	> 100	–	> 100	–	> 100	7.61	22.1	–	–	–	–	–	–	–	–	–	–	–	–
COc1cc(Cc2c(C)cc(OC)c3[nH]c4ccccc4c23)cc2c1[nH]c1ccccc12	–	18.6	> 25	> 25	> 25	> 25	7.93	> 25	> 25	6.89	9.03	6.05	7.84	5.69	9.18	3.94	–	–	–	–
CC(C)(C)c1ccc(C2CC(=O)C3=C(C2)Nc2ccccc2N(C(=O)c2ccccc2Cl)C3c2ccc(F)cc2)cc1 (configuration not stated)	> 100	> 100	–	> 100	–	> 100	> 100	> 100	> 100	> 100	> 100	> 100	–	–	> 100	> 100	1.3	4.14	> 100	> 100
CCCC(O)c1cn(-c2cccc(S(=O)(=O)O)c2)nn1 (configuration not stated)	> 100	> 100	> 100	> 100	> 100	> 100	> 100	> 100	> 100	–	–	–	–	–	–	–	–	–	–	–
O=C(O)c1c2c(cc3c(=O)c4ccccc4[nH]c13)CCCC2	–	> 100	> 100	> 100	> 100	> 100	–	> 100	> 100	–	–	–	–	–	–	–	–	–	–	–
CN1CCN(Cc2ccc(NC(=O)c3[nH]ncc3Nc3ncnc4[nH]ccc34)cc2)CC1	0.406	4.57	–	6.59	0.598	13.1	0.778	10.7	62.7	1.01	0.436	0.82	–	0.142	0.214	0.25	0.149	2.43	0.311	> 100
COC1=C(OC)C(=O)C(C/C=C(\C)CC/C=C(\C)CC/C=C(\C)CC/C=C(\C)CC/C=C(\C)CC/C=C(\C)CC/C=C(\C)CC/C=C(\C)CC/C=C(\C)CCC=C(C)C)=C(C)C1=O	–	> 100	> 100	> 100	> 100	> 100	> 100	> 100	> 100	> 100	> 100	> 100	> 100	> 100	> 100	> 100	–	> 100	> 100	> 100
